# Source: the OligoGym collection
# Oligonucleotides are written 5' to 3', each unit as a sugar letter and its base; * is a phosphorothioate linkage, no mark a phosphodiester; rarer units and linkages stand in square brackets, end groups in braces. Plain capitals give the bases only. d = 2'-deoxy (DNA); r = 2'-OH (RNA)
# Target: UBE2H
# Experiment: reporter assay of Huesken 2005
# Conditions: siRNA
# Also: test concentration or dose not given here.
row,Substance,normalised inhibition (eCFP-eYFP dual reporter) [%]
1,sense rArArArArUrUrArArArGrArGrUrArCrArUrCrCdTdT / antisense rGrGrArUrGrUrArCrUrCrUrUrUrArArUrUrUrUdCdT,70.5
2,sense rArArArGrUrUrArGrArGrUrGrGrArCrCrUrArCdTdT / antisense rGrUrArGrGrUrCrCrArCrUrCrUrArArCrUrUrUdCdC,50
3,sense rArArArUrCrUrCrCrArUrCrUrArUrArGrGrArUdTdT / antisense rArUrCrCrUrArUrArGrArUrGrGrArGrArUrUrUdGdA,96.4
4,sense rArArCrArCrCrArUrArUrGrArArGrGrCrGrGrAdTdT / antisense rUrCrCrGrCrCrUrUrCrArUrArUrGrGrUrGrUrUdCdC,67.8
5,sense rArArCrCrCrCrArUrArGrArUrCrCrUrCrUrCrAdTdT / antisense rUrGrArGrArGrGrArUrCrUrArUrGrGrGrGrUrUdAdG,49.4
6,sense rArArGrUrUrArGrArGrUrGrGrArCrCrUrArCrCdTdT / antisense rGrGrUrArGrGrUrCrCrArCrUrCrUrArArCrUrUdTdC,64.2
7,sense rArArUrArUrArUrUrUrGrArGrUrCrCrUrUrCrCdTdT / antisense rGrGrArArGrGrArCrUrCrArArArUrArUrArUrUdGdG,41.6
8,sense rArCrArGrCrUrCrUrCrUrArUrGrArUrCrUrUrAdTdT / antisense rUrArArGrArUrCrArUrArGrArGrArGrCrUrGrUdCdC,95.8
9,sense rArCrGrCrCrArCrGrGrArGrGrArGrGrCrGrCrUdTdT / antisense rArGrCrGrCrCrUrCrCrUrCrCrGrUrGrGrCrGrUdAdT,71.9
10,sense rArCrUrUrGrGrArCrArGrCrUrCrUrCrUrArUrGdTdT / antisense rCrArUrArGrArGrArGrCrUrGrUrCrCrArArGrUdTdT,86
11,sense rArGrArGrGrGrUrArCrCrGrGrGrGrArCrArGrCdTdT / antisense rGrCrUrGrUrCrCrCrCrGrGrUrArCrCrCrUrCrUdTdC,65
12,sense rArGrGrArArCrUrGrUrGrUrGrUrCrUrArGrArUdTdT / antisense rArUrCrUrArGrArCrArCrArCrArGrUrUrCrCrUdGdA,100
13,sense rArGrGrGrUrArCrCrGrGrGrGrArCrArGrCrUrCdTdT / antisense rGrArGrCrUrGrUrCrCrCrCrGrGrUrArCrCrCrUdCdT,77.2

# Target: UFC1
# Experiment: reporter assay of Huesken 2005
# Conditions: siRNA
row,Substance,normalised inhibition (eCFP-eYFP dual reporter) [%]
1,sense rGrCrCrCrCrArGrArArArUrUrGrCrArGrUrUrCdTdT / antisense rGrArArCrUrGrCrArArUrUrUrCrUrGrGrGrGrCdAdG,61.7
2,sense rGrCrCrUrGrArCrGrGrArUrCrArUrUrUrCrArAdTdT / antisense rUrUrGrArArArUrGrArUrCrCrGrUrCrArGrGrCdAdT,117
3,sense rGrCrGrArCrUrGrArArGrGrArGrGrArArUrArUdTdT / antisense rArUrArUrUrCrCrUrCrCrUrUrCrArGrUrCrGrCdTdG,107
4,sense rGrCrUrGrArCrArArCrGrArUrUrGrGrUrUrCrCdTdT / antisense rGrGrArArCrCrArArUrCrGrUrUrGrUrCrArGrCdAdT,78
5,sense rGrCrUrGrGrCrArGrUrGrGrArArArUrCrCrCrUdTdT / antisense rArGrGrGrArUrUrUrCrCrArCrUrGrCrCrArGrCdCdA,48.5
6,sense rGrGrArCrUrArGrCrUrCrArUrCrUrCrArUrGrGdTdT / antisense rCrCrArUrGrArGrArUrGrArGrCrUrArGrUrCrCdAdA,61.7
7,sense rGrGrArUrGrGrArArArGrArCrArGrCrArArArGdTdT / antisense rCrUrUrUrGrCrUrGrUrCrUrUrUrCrCrArUrCrCdAdG,103
8,sense rGrGrCrArArArArUrArUrGrCrCrUrGrArCrGrGdTdT / antisense rCrCrGrUrCrArGrGrCrArUrArUrUrUrUrGrCrCdAdC,99.9
9,sense rGrGrCrUrCrUrGrGrGrGrCrUrGrGrGrUrCrCrAdTdT / antisense rUrGrGrArCrCrCrArGrCrCrCrCrArGrArGrCrCdAdT,69.9
10,sense rGrGrGrUrGrCrArGrCrGrArCrUrGrArArGrGrAdTdT / antisense rUrCrCrUrUrCrArGrUrCrGrCrUrGrCrArCrCrCdAdC,85.9
11,sense rGrUrArUrArUrCrCrArUrGrArCrCrUrCrCrUrGdTdT / antisense rCrArGrGrArGrGrUrCrArUrGrGrArUrArUrArCdCdA,96
12,sense rGrUrGrGrArGrArArCrArArCrArArGrArArUrGdTdT / antisense rCrArUrUrCrUrUrGrUrUrGrUrUrCrUrCrCrArCdAdT,68.9
13,sense rUrArCrUrGrCrCrCrCrArGrArArArUrUrGrCrAdTdT / antisense rUrGrCrArArUrUrUrCrUrGrGrGrGrCrArGrUrAdGdT,52.2
14,sense rUrCrArGrUrCrCrCrUrUrArUrCrCrGrGrUrArUdTdT / antisense rArUrArCrCrGrGrArUrArArGrGrGrArCrUrGrAdTdA,88.9
15,sense rUrCrArUrCrCrArArCrArCrArArArGrArGrArAdTdT / antisense rUrUrCrUrCrUrUrUrGrUrGrUrUrGrGrArUrGrAdCdG,93
16,sense rUrGrArArArUrArUrGrArGrUrUrUrGrArCrArUdTdT / antisense rArUrGrUrCrArArArCrUrCrArUrArUrUrUrCrAdGdG,75.3
17,sense rUrGrArCrArArCrGrArUrUrGrGrUrUrCrCrGrAdTdT / antisense rUrCrGrGrArArCrCrArArUrCrGrUrUrGrUrCrAdGdC,76.1
18,sense rUrGrArCrArUrUrCrCrUrArUrCrArCrArUrArUdTdT / antisense rArUrArUrGrUrGrArUrArGrGrArArUrGrUrCrAdAdA,115
19,sense rUrGrCrCrCrCrArGrArArArUrUrGrCrArGrUrUdTdT / antisense rArArCrUrGrCrArArUrUrUrCrUrGrGrGrGrCrAdGdT,44.9
20,sense rUrGrGrCrArGrUrGrGrArArArUrCrCrCrUrGrAdTdT / antisense rUrCrArGrGrGrArUrUrUrCrCrArCrUrGrCrCrAdGdC,71.4
21,sense rUrGrGrGrUrCrCrArUrGrGrCrUrGrGrCrArGrUdTdT / antisense rArCrUrGrCrCrArGrCrCrArUrGrGrArCrCrCrAdGdC,35.2
22,sense rUrGrGrUrArUrArUrCrCrArUrGrArCrCrUrCrCdTdT / antisense rGrGrArGrGrUrCrArUrGrGrArUrArUrArCrCrAdGdC,31.4
23,sense rUrGrGrUrUrCrCrGrArCrUrGrGrArGrUrCrCrAdTdT / antisense rUrGrGrArCrUrCrCrArGrUrCrGrGrArArCrCrAdAdT,71.9
24,sense rUrUrGrGrArArArArUrGrCrUrGrGrUrArUrArUdTdT / antisense rArUrArUrArCrCrArGrCrArUrUrUrUrCrCrArAdAdC,56.8
